Source: article PMC8125234, “Cardiolipin Stabilizes and Increases Catalytic Efficiency of Carnitine Palmitoyltransferase II and Its Variants S113L, P50H, and Y479F” (International Journal of Molecular Sciences, 2021)
Residue numbers refer to the chain shown, from its start.

What was measured:
CPT II variant S113L [1] = target: T1, CPT II variant S113L (Homo sapiens, UniProt P23786, S113L); experiment: Lipid binding assay (membrane lipid strips); conditions: 0.4 mg enzyme, 100 pmol lipid spots
T1 construct: made in house; host or cells: Escherichia coli BL21Gold DE
T1 sequence (P23786 26-658 S113L): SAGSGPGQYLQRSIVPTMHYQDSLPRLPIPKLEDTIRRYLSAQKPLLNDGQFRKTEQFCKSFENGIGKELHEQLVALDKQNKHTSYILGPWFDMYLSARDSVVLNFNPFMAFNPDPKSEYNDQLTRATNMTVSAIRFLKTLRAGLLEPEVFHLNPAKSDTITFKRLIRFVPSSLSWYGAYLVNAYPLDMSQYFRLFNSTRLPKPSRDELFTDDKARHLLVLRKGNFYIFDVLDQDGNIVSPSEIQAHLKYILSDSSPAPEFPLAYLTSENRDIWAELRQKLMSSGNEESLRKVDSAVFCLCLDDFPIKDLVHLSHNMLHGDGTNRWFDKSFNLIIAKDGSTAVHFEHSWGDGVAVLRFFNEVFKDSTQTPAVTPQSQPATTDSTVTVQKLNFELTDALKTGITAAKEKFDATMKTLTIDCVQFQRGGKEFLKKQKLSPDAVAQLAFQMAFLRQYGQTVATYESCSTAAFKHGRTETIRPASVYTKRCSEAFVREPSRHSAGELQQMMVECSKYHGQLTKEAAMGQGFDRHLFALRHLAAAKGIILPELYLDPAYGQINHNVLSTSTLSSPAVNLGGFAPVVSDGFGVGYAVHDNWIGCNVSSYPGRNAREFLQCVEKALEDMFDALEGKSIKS
Procedure: (§1) Direct interaction of CPT II WT and variants with phospholipids of the mitochondrial membrane was assessed using membrane lipid strips (Echelon Biosciences, Salt Lake City, Utah, USA). The membrane was spotted with 100 pmol of various cell membrane lipids. The assay was performed following manufacturer’s instructions with some modifications explained in the following. At first, the membrane was washed twice in phosphate buffered saline (PBS). After 1 h incubation with blocking solution (3% BSA fatty acid-free in PBS) at room temperature, the membrane was incubated with purified CPT II WT or variant (final amount 0.4 mg protein) for 2 h at 4 °C. After three washing steps, a-His-Probe (H3) mouse monoclonal antibody (Santa Cruz Biotech, Santa Cruz, CA, USA, 1:1000 dilution in PBS containing 3% BSA) was added to the membrane over night at 4 °C. The membrane was washed three times with PBS and incubated with mouse IgG horseradish peroxidase-linked whole antibody (from sheep, Amersham, Little Chalfont, Buckinghamshire, UK) for 1 h at 4 °C. The interaction was visualized by ECL Western blotting detection reagents (Amersham, Little Chalfont, Buckinghamshire, UK).

CPT II variant P50H [2] = target: T2, CPT II variant P50H (Homo sapiens, UniProt P23786, P50H); experiment: Lipid binding assay (membrane lipid strips); conditions: 0.4 mg enzyme, 100 pmol lipid spots
T2 construct: made in house; host or cells: Escherichia coli BL21Gold DE
T2 sequence (P23786 26-658 P50H): T1 sequence (P23786 26-658 S113L) with P25H, L88S
Procedure: as §1

CPT II WT [3] = target: T3, CPT II WT (Homo sapiens, UniProt P23786); experiment: Lipid binding assay (membrane lipid strips); conditions: 0.4 mg enzyme, 100 pmol lipid spots
T3 construct: made in house; host or cells: Escherichia coli BL21Gold DE
T3 sequence (P23786 26-658): T1 sequence (P23786 26-658 S113L) with L88S
Procedure: as §1

CPT II variant Y479F [4] = target: T4, CPT II variant Y479F (Homo sapiens, UniProt P23786, Y479F); experiment: Lipid binding assay (membrane lipid strips); conditions: 0.4 mg enzyme, 100 pmol lipid spots
T4 construct: made in house; host or cells: Escherichia coli BL21Gold DE
T4 sequence (P23786 26-658 Y479F): T1 sequence (P23786 26-658 S113L) with L88S, Y454F
Procedure: as §1

CPT II variant S113L [5] = target: T1, CPT II variant S113L; experiment: nanoDSF protein stability in presence of CL or β-OG; format: binding
Procedure: (§2) NanoDSF is a standard method for the investigation of the folding/unfolding of proteins and the interaction of proteins with effectors/ligands/substrates
(§3) The protein stability was investigated applying nano differential scanning fluorimetry (nanoDSF) using a protein concentration of 1 mg/mL in assay buffer. […] The heating rate has been set to 1 °C per min. A heating ramp from 15 to 95 °C was determined. The nanoDSF data were obtained using a Prometheus NT.48 device. First derivatives were calculated using PR.ThermControl software (NanoTemper Technologies GmbH, Munich, Germany). Experiments were performed at least three times independently as double determination.

CPT II variant P50H [6] = target: T2, CPT II variant P50H; experiment: as above; format: binding; conditions: 1 mg/mL protein
Procedure: as §2, §3

CPT II WT [7] = target: T3, CPT II WT; experiment: as above; format: binding
Procedure: as §2, §3

CPT II variant Y479F [8] = target: T4, CPT II variant Y479F; experiment: as above; format: binding
Procedure: as §2, §3

[9] = reference TM of WT in buffer (ΔTM = 0 °C)

Row | Signal for interaction on membrane lipid strips (CPT II variant S113L [1]) | Signal for interaction on membrane lipid strips (CPT II variant P50H [2]) | Signal for interaction on membrane lipid strips (CPT II WT [3]) | Signal for interaction on membrane lipid strips (CPT II variant Y479F [4]) | Molecule | other results
1 | highest signal | highest signal | highest signal | highest signal | phosphatidylinositol (3,4,5)-trisphosphate [PtdIns(3,4,5)P3] | 
2 | interaction with PI was detected | No signal | interaction with PI was detected | interaction with PI was detected | phosphatidylinositol [PI] | 
3 | lower detection signal | lower detection signal |  |  | phosphatidylglycerol [PG] | 

More lines, now with the values behind:

Row | Molecule | Signal for interaction on membrane lipid strips (CPT II variant S113L [1]) | Signal for interaction on membrane lipid strips (CPT II variant P50H [2]) | Signal for interaction on membrane lipid strips (CPT II WT [3]) | Signal for interaction on membrane lipid strips (CPT II variant Y479F [4]) | other results
4 | phosphatidylinositol (4,5)-bisphosphate [PtdIns(4,5)P2] | highest signal | highest signal | highest signal | highest signal | 
5 | CCCCCCCCO[C@@H]1O[C@H](CO)[C@@H](O)[C@H](O)[C@H]1O [β-OG, n-octyl-β-d-glucopyranoside] |  |  |  |  | TM in Buffer with 1 % β-OG (CPT II variant S113L [5]; 1 mg/mL protein): 45.3 ± 0.6 °C; ∆TM in Buffer with 1 % β-OG (CPT II variant S113L [5]; [9]): 8.4 ± 0.6 °C; TM in Buffer with 1 % β-OG (CPT II variant P50H [6]): 43.5 ± 0.4 °C; TM in Buffer with 1 % β-OG (CPT II WT [7]; 1 mg/mL protein): 49.9 ± 0.7 °C; ∆TM in Buffer with 1 % β-OG (CPT II WT [7]; [9]): 13.0 ± 0.7 °C; TM in Buffer with 1 % β-OG (CPT II variant Y479F [8]; 1 mg/mL protein): 49.0 ± 0.5 °C; ∆TM in Buffer with 1 % β-OG (CPT II variant Y479F [8]; [9]): 12.1 ± 0.5 °C
6 | phosphatidylserine [PS] |  | reduced |  |  | 
